# Results reported in publication PMC2063833 (The Journal of Cell Biology, 2006).
# pEC50: −log10 of the molar value.
# Biological target: T1, Ssy1p (Saccharomyces cerevisiae, UniProt Q03770)
# T1 sequence (Q03770 1-852): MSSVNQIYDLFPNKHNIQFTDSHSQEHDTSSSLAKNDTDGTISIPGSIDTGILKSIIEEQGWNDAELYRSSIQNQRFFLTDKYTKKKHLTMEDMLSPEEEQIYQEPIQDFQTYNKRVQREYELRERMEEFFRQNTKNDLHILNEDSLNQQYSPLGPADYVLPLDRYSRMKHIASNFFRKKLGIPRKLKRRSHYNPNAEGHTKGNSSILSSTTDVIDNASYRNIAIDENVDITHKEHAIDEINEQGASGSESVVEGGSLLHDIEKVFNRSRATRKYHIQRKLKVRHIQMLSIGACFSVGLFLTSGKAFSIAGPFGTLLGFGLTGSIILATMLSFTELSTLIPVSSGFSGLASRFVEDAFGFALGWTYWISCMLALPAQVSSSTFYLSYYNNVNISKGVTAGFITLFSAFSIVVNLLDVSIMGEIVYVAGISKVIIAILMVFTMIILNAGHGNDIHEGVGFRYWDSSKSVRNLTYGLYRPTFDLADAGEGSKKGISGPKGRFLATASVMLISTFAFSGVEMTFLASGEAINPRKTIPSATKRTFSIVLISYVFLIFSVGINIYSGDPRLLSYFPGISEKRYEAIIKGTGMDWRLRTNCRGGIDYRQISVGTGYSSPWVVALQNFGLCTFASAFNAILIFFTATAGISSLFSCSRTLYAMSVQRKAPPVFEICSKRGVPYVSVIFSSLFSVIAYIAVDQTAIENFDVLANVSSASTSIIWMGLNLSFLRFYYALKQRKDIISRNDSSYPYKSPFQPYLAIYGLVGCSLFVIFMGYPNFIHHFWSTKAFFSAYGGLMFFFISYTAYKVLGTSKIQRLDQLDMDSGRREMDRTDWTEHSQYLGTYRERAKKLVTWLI
# Assay: Ssy1p signaling measured as Stp1p processing
# Format: cell-based
# Details: for pEC50: EC50 for sensing of extracellular amino acid, grown in SD
SMILES,"Effect on EC50 of adding isoamyl alcohol (isoamyl alcohol at relevant concentrations, unpublished data)","pEC50 (experiment 1, strain M5447 (ura3 gap1Δ), Leuc 0.5 μmol/g DW, mean of triplicate)","pEC50 (experiment 5, strain M5568 (ura3 gap1Δ bap2Δ tat1Δ bap3Δ agp1::URA3), Leuc 1 μmol/g DW)","pEC50 (experiment 9, strain M5446 (ura3 gap1Δ LEU4-fbr), Leuc 12 μmol/g DW)"
CC(C)CCO [isoamyl alcohol],no significant effect,,,
"CC(C)C[C@H](N)C(=O)O [Leu, leucine]",,4.89,4.82,4.52
